These are literature values, as cited in US20210137911A1, “NOVEL CHRONOTHERAPY BASED ON CIRCADIAN RHYTHMS” (THE TRUSTEES OF THE UNIVERSITY OF PENNSYLVANIA, priority 2014, published 2021).

Like-named read-outs stand apart in the source and are kept apart here. Positions of bridges follow the written chain, without caps; N, C: chain ends. Non-standard residues stand in square brackets, D forms with d. Residues, ends and D or L forms follow the SMILES beside them.

For the data set the following is noted: cited from earlier work.
Setting [1] is: half-life of therapeutic compound as listed in Table 1.
The mark [2] stands for this setting: half-life of top selling therapeutic compounds (Table 1).

As for Nitroprusside, the “½ Life” value (in vivo) is 0.033 h.
On to `CCOc1ccccc1OCCN[C@H](C)Cc1ccc(OC)c(S(N)(=O)=O)c1` [Tamsulosin], for which the “½ Life” value (in vivo) is 5 h.
With OspA lipoprotein, the “½ Life” value under setting [1] is 1.2 h.
`Nc1ccn([C@@H]2O[C@H](CO)[C@@H](O)[C@@H]2O)c(=O)n1` [Cytarabine]: under “in vivo”, the “½ Life” value was 0.166 h.
As to `Cc1[nH]c(=O)c(C#N)cc1-c1ccncc1` [Milrinone], the “½ Life” value under setting [1] is 2.3 h.
In the case of `CCC1=C(C)CN(C(=O)NCCc2ccc(S(=O)(=O)NC(=O)N[C@H]3CC[C@H](C)CC3)cc2)C1=O` [Glimepiride], under setting [1], the “½ Life” value was 5 h.
For `Cc1cccc([C@H](C)c2cnc[nH]2)c1C` [Dexmedetomidine], under setting [2], the “½ Life” value was 2 h.
As to `CC1(C)O[C@@H]2C[C@H]3[C@@H]4C[C@H](F)C5=CC(=O)C=C[C@]5(C)[C@@]4(F)[C@@H](O)C[C@]3(C)[C@]2(C(=O)CO)O1` [Fluocinolone Acetonide], the “½ Life” value under setting [2] was 1.3 h.
As for `O=C(c1ccccc1)c1ccc2n1CCC2C(=O)O` (stereo not shown) [Ketorolac], under setting [1], the “½ Life” value was 2.5 h.
For `CN1CCN(C(=O)OC2c3nccnc3C(=O)N2c2ccc(Cl)cn2)CC1` (stereo not shown) [Zopiclone], the “½ Life” value (in vivo) was 5 h.
For `O=C1C(CC[S+]([O-])c2ccccc2)C(=O)N(c2ccccc2)N1c1ccccc1` (stereo not shown) [Sulfinpyrazone], the “½ Life” value (in vivo) was 4 h.
As for `COc1ccc2c(c1)[C@]13CCCC[C@@H]1[C@H](C2)N(C)CC3` [Dextromethorphan], the “½ Life” value under setting [2] is 3 h.
On to `Cc1cccc(Nc2ccccc2C(=O)O)c1C` [Mefenamic acid], for which the “½ Life” value under setting [1] is 2 h.
As to `O=C(NCCN1CCOCC1)c1ccc(Cl)cc1` [Moclobemide], under setting [1], the “½ Life” value is 1 h.
For the compound `CN1CCN(C2=Nc3ccccc3Oc3ccc(Cl)cc32)CC1` [Loxapine], under setting [1], the “½ Life” value is 4 h.
For `CN1C(=O)CN=C(c2ccccc2)c2cc(Cl)ccc21` [Diazepam], the “½ Life” value (in vivo) was 1 h.
In the case of `CN1CCC[C@@H]1Cc1c[nH]c2ccc(CCS(=O)(=O)c3ccccc3)cc12` [Eletriptan], the “½ Life” value under setting [2] is 4 h.
Take `CC(C)[C@@H]1NC(=O)[C@H](CCCCN)NC(=O)[C@@H](Cc2c[nH]c3ccccc23)NC(=O)[C@H](Cc2ccc(O)cc2)NC(=O)[C@@H](NC(=O)[C@H](N)Cc2ccccc2)CSSC[C@@H](C(=O)N[C@@H](Cc2c[nH]c3ccccc23)C(N)=O)NC1=O` [Vapreotide] (H-[dF]CY[dW]KVCW-NH2; disulfide 2-7): under “in vivo”, the “½ Life” value was 0.5 h.
Consider `CC[C@H](C)[C@H](NC(=O)[C@@H]1CCCN1C(=O)CNC(=O)[C@H](Cc1ccccc1)NC(=O)[C@H](CC(N)=O)NC(=O)[C@H](CC(N)=O)NC(=O)[C@H](CO)NC(=O)[C@H](CO)NC(=O)[C@H](Cc1c[nH]cn1)NC(=O)[C@@H](NC(=O)[C@H](CC(C)C)NC(=O)[C@H](Cc1ccccc1)NC(=O)[C@H](CC(N)=O)NC(=O)[C@H](C)NC(=O)[C@H](CC(C)C)NC(=O)[C@H](CCCNC(=N)N)NC(=O)[C@H](CCC(N)=O)NC(=O)[C@@H](NC(=O)[C@H](C)NC(=O)[C@@H]1CSSC[C@H](NC(=O)[C@@H](N)CCCCN)C(=O)N[C@@H](CC(N)=O)C(=O)N[C@@H]([C@@H](C)O)C(=O)N[C@@H](C)C(=O)N[C@@H]([C@@H](C)O)C(=O)N1)[C@@H](C)O)C(C)C)C(=O)N[C@@H](CC(C)C)C(=O)N1CCC[C@H]1C(=O)N1CCC[C@H]1C(=O)N[C@H](C(=O)N[C@@H](CC(N)=O)C(=O)N[C@H](C(=O)NCC(=O)N[C@@H](CO)C(=O)N[C@@H](CC(N)=O)C(=O)N[C@H](C(=O)N[C@@H](Cc1ccc(O)cc1)C(N)=O)[C@@H](C)O)C(C)C)[C@@H](C)O` [Pramlintide], for which, for the setting “in vivo”, the “½ Life” value was 0.8 h.
As for `CC(C)(C)NC(=O)[C@H]1CC[C@H]2[C@@H]3CC[C@H]4NC(=O)C=C[C@]4(C)[C@H]3CC[C@]12C` [Finasteride], the “½ Life” value under setting [2] is 4.5 h.
Consider `CC(CCc1ccc(O)cc1)NCCc1ccc(O)c(O)c1` (stereo not shown) [Dobutamine], for which, under setting [2], the “½ Life” value is 0.033 h.
As for `CC(=O)c1ccc2c(c1)N(CCCN(C)C)c1ccccc1S2` [Acepromazine], under setting [2], the “½ Life” value is 3 h.
With `COC(=O)[C@H]1[C@@H](OC(=O)c2ccccc2)C[C@@H]2CC[C@H]1N2C` [Cocaine], the “½ Life” value under setting [2] was 1 h.
`CCC1(c2ccccc2)C(=O)NCNC1=O` [Primidone]: under setting [1], the “½ Life” value was 3 h.
Take `CCOC(=O)Nc1ccc2c(c1)N(C(=O)CCN1CCOCC1)c1ccccc1S2` [Moricizine]: the “½ Life” value under setting [1] was 2 h.
With `O=C(CCCN1CC=C(n2c(=O)[nH]c3ccccc32)CC1)c1ccc(F)cc1` [Droperidol], under setting [2], the “½ Life” value is 1.4 h.
With `Nc1c2c(nc3ccccc13)CCCC2` [Tacrine], the “½ Life” value (in vivo) is 2 h.
Take `NC(=O)NO` [Hydroxyurea]: the “½ Life” value under setting [1] is 3 h.
With `CC(N)C(O)c1ccccc1` (stereo not shown) [Phenylpropanolamine], the “½ Life” value (in vivo) is 2.1 h.
As to `CC(=O)O[C@H]1C[C@@H]2CC[C@@H]3[C@H](CC[C@@]4(C)[C@H]3C[C@H]([N+]3(C)CCCCC3)[C@@H]4OC(C)=O)[C@@]2(C)C[C@@H]1[N+]1(C)CCCCC1` [Pancuronium], where the note is “in vivo”, the “½ Life” value is 1.5 h.
Turning to `NNC(=O)c1ccncc1` [Isoniazid], the “½ Life” value under setting [1] is 0.5 h.
Regarding `CC(C)(C)NCC(O)c1cc(O)cc(O)c1` (stereo not shown) [Terbutaline], the “½ Life” value (in vivo) was 5.5 h.
For `CCN1C(=O)NC(c2ccccc2)C1=O` (stereo not shown) [Ethotoin], the “½ Life” value under setting [2] is 3 h.
`Cn1c(=O)c2c(ncn2CC(O)CO)n(C)c1=O` (stereo not shown) [Dyphylline]: the “½ Life” value under setting [2] is 2 h.
`Nc1nc(Cl)nc2c1ncn2[C@H]1C[C@H](O)[C@@H](CO)O1` [Cladribine]: the “½ Life” value under setting [2] is 5.4 h.
Regarding `COc1ccc2cc1Oc1cc3c(cc1OC)CC[N+](C)(C)[C@H]3Cc1ccc(cc1)Oc1c(OC)c(OC)cc3c1[C@@H](C2)[N+](C)(C)CC3` [Metocurine Iodide], the “½ Life” value (in vivo) was 3 h.
For the compound “Corticotropin (SYSMEHFRWGKPVGKKRRPVKVYPNGAEDESAEAFPLEF; Corticotropin; UniProt P01189 138-176, looked up)”, the “½ Life” value under setting [2] was 0.25 h.
`NCC(CC(=O)O)c1ccc(Cl)cc1` (stereo not shown) [Baclofen]: the “½ Life” value under setting [2] was 2.5 h.
As to `CCNC(=O)[C@@H]1CCCN1C(=O)[C@H](CCCNC(=N)N)NC(=O)[C@H](CC(C)C)NC(=O)[C@@H](CC(C)C)NC(=O)[C@H](Cc1ccc(O)cc1)NC(=O)[C@H](CO)NC(=O)[C@H](Cc1c[nH]c2ccccc12)NC(=O)[C@H](Cc1c[nH]cn1)NC(=O)[C@@H]1CCC(=O)N1` [Leuprolide], the “½ Life” value (in vivo) was 3 h.
For the compound `CCOC(=O)[C@H](CCc1ccccc1)N[C@@H](C)C(=O)N1CCC[C@H]1C(=O)O` [Enalapril, reference compound], the “½ Life” value under setting [2] is 2 h. The minimum reported half-life (see Table 1) was 2 h.
On to `O=[N+]([O-])[O-].O=[N+]([O-])[O-].O=[N+]([O-])[O-].[Ga+3]` [Gallium nitrate], for which the “½ Life” value under setting [1] is 1 h.
With `Nc1cc(-c2ccncc2)c[nH]c1=O` [Amrinone], the “½ Life” value under setting [2] is 5 h.
For Urokinase, the “½ Life” value (in vivo) is 0.2 h.
Turning to `C=CC[N+]1([C@H]2C[C@H]3[C@@H]4CC[C@H]5C[C@H](O)[C@@H](N6CCOCC6)C[C@]5(C)[C@H]4CC[C@]3(C)[C@H]2OC(C)=O)CCCC1` [Rocuronium], where the note is “in vivo”, the “½ Life” value is 1 h.
As to `CSCC[C@H](NC(=O)[C@H](Cc1c[nH]c2ccccc12)NC(=O)CCNC(=O)OC(C)(C)C)C(=O)N[C@@H](CC(=O)O)C(=O)N[C@@H](Cc1ccccc1)C(N)=O` [Pentagastrin], the “½ Life” value (in vivo) was 0.166 h.
For the compound `CC(C(=O)O)c1ccc(C(=O)c2ccccc2)s1` (stereo not shown) [Tiaprofenic acid], the “½ Life” value (in vivo) is 1.5 h.
For `O=NN(CCCl)C(=O)NCCCl` [Carmustine], the “½ Life” value (in vivo) was 0.25 h.
Consider `CCCN(CCc1cccs1)[C@H]1CCc2c(O)cccc2C1` [Rotigotine], for which, for the setting “in vivo”, the “½ Life” value is 5 h.
For `OC(CCCN1CCCCC1)(c1ccccc1)c1ccccc1` [Diphenidol], the “½ Life” value under setting [2] is 4 h.
For the compound `COCCOc1cnc(NS(=O)(=O)c2ccccc2)nc1` [Glycodiazine], under setting [1], the “½ Life” value was 4 h.
As to `CC[C@]1(O)C[C@H]2CN(CCc3c([nH]c4ccccc34)[C@@](C(=O)OC)(c3cc4c(cc3OC)N(C=O)[C@H]3[C@@](O)(C(=O)OC)[C@H](OC(C)=O)[C@]5(CC)C=CCN6CC[C@]43[C@@H]65)C2)C1` [Vincristine], the “½ Life” value (in vivo) is 5 h.
Regarding `CCc1cc(C(N)=S)ccn1` [Ethionamide], the “½ Life” value under setting [2] was 2 h.
Take `Nc1nc(N/N=C/C2CCCCC2)nc2c1ncn2[C@@H]1O[C@H](CO)[C@@H](O)[C@H]1O` [Binodenoson]: the “½ Life” value under setting [2] was 0.166 h.
With `CCCCNc1cc(C(=O)O)cc(S(N)(=O)=O)c1Oc1ccccc1` [Bumetanide], under setting [2], the “½ Life” value was 1 h.
For `CCCCC[C@H](O)/C=C/[C@H]1[C@H](O)CC(=O)[C@@H]1C/C=C\CCCC(=O)O` [Dinoprostone], the “½ Life” value under setting [2] is 0.0833 h.
As for `Nc1ncn([C@H]2C[C@H](O)[C@@H](CO)O2)c(=O)n1` [Decitabine], under setting [2], the “½ Life” value was 0.51 h.
In the case of `c1cc(CN2CCCNCCNCCCNCC2)ccc1CN1CCCNCCNCCCNCC1` [Plerixafor], the “½ Life” value under setting [1] is 4.4 h.
Regarding `C=C1/C(=C\C=C2/CCC[C@]3(C)[C@@H]([C@H](C)CCCC(C)(C)O)CC[C@@H]23)C[C@@H](O)C[C@@H]1O` [Calcitriol], the “½ Life” value under setting [2] was 5 h.
Regarding `O=C(O)Cc1ccccc1Nc1c(Cl)cccc1Cl` [Diclofenac], the “½ Life” value (in vivo) was 2 h.
Consider Pentosan Polysulfate, for which the “½ Life” value (in vivo) was 4.8 h.
`COc1ccc2c3c1O[C@H]1C(=O)CC[C@H]4[C@@H](C2)N(C)CC[C@]314` [Hydrocodone]: the “½ Life” value (in vivo) was 1.25 h.
As for `CC(C(=O)O)c1cccc(Oc2ccccc2)c1` (stereo not shown) [Fenoprofen], the “½ Life” value under setting [2] was 3 h.
In the case of `C[C@]12CC[C@H]3[C@@H](CCC4=CC(=O)CC[C@@]43C)[C@@H]1CC[C@@H]2O` [Testosterone], the “½ Life” value (in vivo) was 0.166 h.
